Experimental data as given in patent US20120225889A1, “USE OF MACROCYCLIC LACTONE DERIVATIVES FOR THE TREATMENT OF INFLAMMATORY DISORDERS” (PIRAMAL LIFE SCIENCES LIMITED, priority 2010, published 2012).
pIC50: −log10 of the molar value. Read-outs that look alike come from different tables or passages of the source.

Assays:
[1] = test system: hPBMCs; test: Lymphocyte proliferation assay (T-cell proliferation of normal hPBMCs); assay type: cell-based; details: Homo sapiens
Excerpt: The assay method was designed as in references, The Journal of Immunology, 153, 1-9, (1994), and Clinical and Diagnostic Laboratory Immunology, 7, 687-692, (2000), the disclosure of which is incorporated by reference for the teaching of the assay.
hPBMCs were obtained from healthy donors by centrifugation of heparinized venous blood over Ficoll/Hypaque solution (Histopaque-1077, Sigma, USA). Isolated hPBMCs were suspended in RPMI 1640 culture medium supplemented with 10% FBS and seeded at a density of 50,000 cells/well in a 96-well plate (Nunc, USA). The cells were incubated at 37° C., 5% CO2 for a period of 24 h. These cells were used for the lymphocyte proliferation as well as cytokine release assay.
The plated cells were treated with different concentrations of the test compound (prepared as 20 mM stock in DMSO and diluted with DMSO to achieve the following final concentrations in the assay: 100, 10, 1, 0.1, 0.01, 0.001 and 0.0001 μM) and were incubated for 30 min. The cells were then stimulated with 5 ng/mL PMA (Sigma, USA, prepared as 100 μg/mL stock in RPMI and was diluted to 5 ng/mL) and 5 μg/mL PHA (Sigma, USA, prepared as a 1 mg/mL stock in RPMI). The plates were incubated at 37° C., 5% CO2 for 48 h. The cells were treated overnight with 0.1 μCi of tritiated thymidine per well (obtained from BARC, India; prepared as stock of 1 mCi/mL) and was diluted in KRPH buffer to 10 μCi/mL and […] and was added per well to obtain a final concentration 0.1 μCi/well) and at the end of 48 h, the anti-proliferative effect of the compound was measured using the following formula: […]
Controls consisted of hPBMCs with PHA and PMA (Stimulated), hPBMCs with RPMI (Un-stimulated), hPBMCs with FK506 (positive control, Sigma, USA, prepared as 20 mM stock in DMSO and diluted with DMSO to achieve the following final concentrations in the assay: 100, 10, 1, 0.1, 0.01, 0.001 and 0.0001 μM).

[2] = test system: C57BL mice with DSS induced colitis; test: DSS induced murine model of acute colitis; assay type: in vivo
Protocol: The assay was designed as in references, Laboratory Investigation, 80, 1541, (2000), and Faseb Journal, 19:792, (2005), the disclosure of which is incorporated by reference for the teaching of the assay.
Normal, in-house bred female C57BL mice weighing […], 8-10 weeks old, were used. The animals were housed in individually ventilated cages, three per cage, throughout the experimental period.
Experimental colitis was induced in mice by replacing drinking water with 3% (w/v) DSS (molecular weight 36,000-50,000, MP Biomedicals Inc., USA) solution. This solution was prepared in water, freshly every alternate day and was made available to the experimental animals ad libitum, from day 0 to day 10. A batch of six naïve animals received water instead of DSS during this period.
The animals were weighed every day and the record of body weights was maintained. The suspension of test compound (was prepared at a concentration of 0.05 mg/mL, in 0.5% (w/v) CMC after mixing with minimum quantity of Tween 80 necessary to wet the compound, and was administered orally, daily once to the animals at a volume of 10 mL/kg (dose=0.5 mg/kg). This treatment was initiated on day 6 and continued up to day 10. During this period, DSS control animals and naïve animals received CMC (mixed in the same proportion with 100 μL of Tween 80) at a dose of 10 mL/kg, daily once.
On day 11, the animals were sacrificed, blood was collected in heparinized tubes and the following parameters were studied; • 1. Rectal bleeding/blood in faeces • 2. Fecal consistency • 3. Bleeding in colon • 4. Colon weight • 5. Colon length • 6. Change in body weight on day 11 from that of day 0 • 7. Blood hemoglobin concentration
The data are represented in the following tables (Table 8, Table 9 and Table 10) as quantifiable parameters, descriptive parameters and actual scores. The descriptive parameters are represented by DAI. DAI is a research tool used to quantify the symptoms of the colitic animals. DAI is used in order to define response of the treatment or remission of the disease. In order to achieve this, various factors are studied. […] DAI is the sum of the scores of all factors.
On the last day of compound treatment (compound of example 7, 0.5 mg/kg, p.o., […]) the animals were euthanized humanely, blood samples were collected and the colon was excised. Anterior part of the colon was washed with normal saline to remove fecal material and then fixed in 10% NBF (Neutral buffered formalin). After 10 days of fixation the colon specimens were trimmed and processed overnight using automated tissue processor. Following day the specimens were blocked in paraffin and exposed to cold shock overnight at −18° C. Sections (5μ) were made from cross section of the colonic lumen and stained with routine Hematoxyllin (Sigma, USA) & Eosin (Loba Chemie, India) and mounted permanently. Slides were dried for 24 h and then graded histologically. The results were expressed as histological scores. Histological analysis was based on various parameters like presence of inflammatory cells, erosions, crypt destruction, edema and overall architectural changes graded on a score of 0 to 3, wherein 0 corresponds to absence, 1 corresponds to changes in 25% of the circumference of the colonic lumen, 2 corresponds to up to 50% and 3 corresponds to more than 50% of colonic circumference getting affected. All the scores were summed up to arrive to a total histological score for each section. Two random sections were graded and mean was calculated.

[3] = day 11, DSS mice, 0.5 mg/kg orally daily once, day 6 to day 10
[4] = score 0-3 (Table 9), DSS mice, 0.5 mg/kg orally daily once, day 6 to day 10

Question: Which results are given for `C/C=C/C(O)C(C)/C=C/C(=N\O)C(C)C(O)C(C)C1OC(=O)/C(OC)=C/C(C)=C/C(C)C(O)C(CC)C(O)C(C)C/C(C)=C/C=C/C1OC` (centres unmarked) [Compound of example 7, (3Z,5E,13E,15E)-18-((5Z,6E,10E)-3,9-Dihydroxy-5-(hydroxymino)-4,8-dimethyldodeca-6,10-dien-2-yl)-9-ethyl-8,10-dihydroxy-3,17-dimethoxy-5,7,11,13-tetramethyl oxacyclooctadeca-3,5,13,15-tetraen-2-one]?
Answer: pIC50 ([1]; read-out: Stimulated hPBMC's IC50 (inhibition of cell proliferation)): 8.52; pIC50 ([1]; read-out: Unstimulated hPBMC's IC50 (inhibition of cell proliferation)): 5.30; Group mean histological score (colon) ([2]; 0.5 mg/kg, p.o., b.i.d, DSS control 7.50+0.96): 5.33+0.99; histological damage (colon) ([2]; DSS induced colitic C57BL mice): confer protection against histological damage; Hbg % ([2]; blood hemoglobin, day 11, DSS mice, 0.5 mg/kg orally daily once, day 6 to day 10): 10.77 ± 0.48 g %; Colon length [2, 3]: 7.33 ± 0.30; Colon weight mg [2, 3]: 273.8 ± 8.93 mg; Colon weight mg per cm [2, 3]: 37.6 ± 1.8 mg per cm; Change in body weight ([2]; day 11 from day 0, DSS mice, 0.5 mg/kg orally daily once, day 6 to day 10): +0.57 ± 0.28; severity of colitis ([2]; orally 0.5 mg/kg, mice with DSS induced colitis): reduces the severity of colitis; Blood in colon score [2, 4]: 0.61 ± 0.30; Fecal consistency score [2, 4]: 1.0 ± 0.50; Rectal bleeding score [2, 4]: 0.18 ± 0.15; Disease activity index ([2]; sum of the scores of all features, DSS mice, 0.5 mg/kg orally daily once, day 6 to day 10): 1.67 ± 0.47
